Literature values in PMC7395068, “The evolution of strategies to minimise the risk of human drug-induced liver injury (DILI) in drug discovery and development” (Archives of Toxicology, 2020).
Read-outs that look alike come from different tables or passages of the source.

Legend:
[1] = cited from earlier work
PHH spheroids = conditions: In vitro Assay; ref Vorrink 2018; cited from earlier work
[2] = test system: HepG2 cells, primary human hepatocytes; conditions: cited from earlier work
HepG2 cells [3] = conditions: In vitro Assay; ref Persson 2013; cited from earlier work
human hepatocytes = conditions: In vitro Assay; ref Xu 2008; cited from earlier work
HepG2 cells [4] = conditions: In vitro Assay; ref O'Brien 2006; cited from earlier work
[5] = ref Chen 2016; cited from earlier work
PHH = conditions: In vitro Assay; ref Proctor 2017; cited from earlier work
hLiMTs = conditions: In vitro Assay; ref Proctor 2017; cited from earlier work
[6] = test system: isolated mouse liver mitochondria; conditions: In vitro Assay; ref Porceddu 2012; cited from earlier work
rBsep = conditions: cited from earlier work
[7] = test system: THLE-Null and THLE-3A4 cells; conditions: In vitro Assay; ref Gustafsson 2014; cited from earlier work
[8] = test system: primary human hepatocytes, NIH3T3 fibroblasts, BSEP, CYP3A4; conditions: In vitro Assay; ref Schadt 2015; cited from earlier work
[9] = test system: THLE or HepG2 cells, isolated mitochondria, BSEP; conditions: In vitro Assay; ref Aleo 2019; cited from earlier work
[10] = In vitro Assay, ref Garside 2014
[11] = In vitro Assay, ref Dawson 2012
[12] = assignment in Garside 2014, ref Garside 2014

CCN(CC)Cc1cc(Nc2ccnc3cc(Cl)ccc23)ccc1O [amodiaquine]
In vivo DILI ([1]; […]): +VE
In vivo DILI ([1]; ref Garside 2014): +VE
In vivo DILI ([1]; ref Gustafsson 2014): +VE
In vivo DILI ([1]; ref O'Brien 2006): +VE
In vivo DILI ([1]; ref Persson 2013): +VE
In vivo DILI ([1]; ref Proctor 2017): +VE
In vivo DILI ([1]; ref Schadt 2015): +VE
In vivo DILI ([1]; ref Vorrink 2018): +VE
In vivo DILI ([1]; ref Williams 2019): +VE
hLiMTs ATP <20 x Cmax (PHH spheroids): +VE (IC20 < 20 × Cmax.tot cut-off)
Cluster 1-6 +VE Assay [2, 10]: +VE
Cluser analysis (HepG2 cells [3]): +VE

c1ccc(CN(CC2=NCCN2)c2ccccc2)cc1 [antazoline]
Cluster 1-6 +VE Assay [2, 10]: -VE

COc1ccc(CCN2CCC(Nc3nc4ccccc4n3Cc3ccc(F)cc3)CC2)cc1 [astemizole]
Structural based (HCI) (human hepatocytes): -VE
In vivo DILI ([1]; ref Garside 2014): +VE
In vivo DILI ([1]; ref O'Brien 2006): -VE
In vivo DILI ([1]; ref Xu 2008): -VE
Cluster 1-6 +VE Assay [2, 10]: +VE
Structural based (HCI) (HepG2 cells [4]): -VE

[N-]=[N+]=CC(=O)OC[C@H](N)C(=O)O [azaserine]
Structural based (HCI) (human hepatocytes): -VE
Cluster 1-6 +VE Assay [2, 10]: +VE

CC[C@H]1OC(=O)[C@H](C)[C@@H](O[C@H]2C[C@@](C)(OC)[C@@H](O)[C@H](C)O2)[C@H](C)[C@@H](O[C@@H]2O[C@H](C)C[C@H](N(C)C)[C@H]2O)[C@](C)(O)C[C@@H](C)CN(C)[C@H](C)[C@@H](O)[C@]1(C)O [azithromycin]
Structural based (HCI) (human hepatocytes): -VE
In vivo DILI ([1]; […]): +VE
In vivo DILI ([1]; ref Garside 2014): +VE
In vivo DILI ([1]; ref Xu 2008): -VE
DILI +VE (5-8), DILI -VE (-4) [5]: +VE
DILI severity category [5]: vLess-DILI-Concern
Cluster 1-6 +VE Assay [2, 10]: +VE

NC(CO)C(=O)NNCc1ccc(O)c(O)c1O (stereo not drawn) [benserazide]
PHH ATP <100uM (PHH): -VE
In vivo DILI ([1]; ref Garside 2014): -VE
In vivo DILI ([1]; ref Proctor 2017): -VE
In vivo DILI ([1]; ref Schadt 2015): -VE
hLiMTs ATP <100uM (hLiMTs): -VE
Cluster 1-6 +VE Assay [2, 10]: -VE

OC(CCN1CCCCC1)(c1ccccc1)C1CC2C=CC1C2 (stereo not drawn) [biperiden]
Cluster 1-6 +VE Assay [2, 10]: -VE

CC(=O)Oc1ccc(C(c2ccc(OC(C)=O)cc2)c2ccccn2)cc1 [bisacodyl]
in vitro data EC2<=1x Cmax [6]: -VE
in vitro data EC20<=2uM [6]: +VE
In vivo DILI ([1]; ref Garside 2014): -VE
In vivo DILI ([1]; ref O'Brien 2006): -VE
In vivo DILI ([1]; ref Persson 2013): -VE
In vivo DILI ([1]; ref Porceddu 2012): -VE
DILI +VE (5-8), DILI -VE (-4) [5]: -VE
DILI severity category [5]: vNo-DILI-Concern
Cluster 1-6 +VE Assay [2, 10]: +VE
Structural based (HCI) (HepG2 cells [4]): +VE
Cluser analysis (HepG2 cells [3]): -VE
Structural based (HCI) (HepG2 cells [3]): -VE

CCCCNc1cc(C(=O)O)cc(S(N)(=O)=O)c1Oc1ccccc1 [bumetanide]
Structural based (HCI) (human hepatocytes): +VE
hLiMTs ATP <20 x Cmax (PHH spheroids): -VE
Cluster 1-6 +VE Assay [2, 10]: -VE

CCCCN(CCCC)CCCOC(=O)c1ccc(N)cc1 [butacaine]
In vivo DILI ([1]; ref Garside 2014): -VE
Cluster 1-6 +VE Assay [2, 10]: +VE

Cn1c(=O)c2c(ncn2C)n(C)c1=O [caffeine]
in vitro data EC2<=1x Cmax [6]: +VE
Cluster 1-6 +VE Assay [2]: -VE

O=NN(CCCl)C(=O)NCCCl [carmustine]
Inhibition of rBsep cutoff<3 (rBsep; [11]): -VE
Inhibition of rBsep cutoff<1& cmax u>.2 (rBsep): -VE
Cluster 1-6 +VE Assay [2]: +VE

CO[C@@]1(NC(=O)C2SC(=C(C(N)=O)C(=O)O)S2)C(=O)N2C(C(=O)O)=C(CSc3nnnn3C)CS[C@@H]21 (stereo partly drawn) [cefotetan]
In vivo DILI ([1]; ref Garside 2014): -VE
DILI +VE (5-8), DILI -VE (-4) [5]: -VE
DILI severity category [5]: Ambiguous DILI-concern
Cluster 1-6 +VE Assay [2, 10]: -VE

COc1ccc(C(Cl)=C(c2ccc(OC)cc2)c2ccc(OC)cc2)cc1 [chlorotrianisene]
In vivo DILI ([1]; ref Garside 2014): -VE
Cluster 1-6 +VE Assay [2, 10]: -VE

CC(C)(Oc1ccc(C2CC2(Cl)Cl)cc1)C(=O)O (stereo not drawn) [ciprofibrate]
Structural based (HCI) (human hepatocytes): +VE
THLE-Null [7]: -VE
THLE-Null/3A4 [7]: -VE
In vivo DILI ([1]; ref Dawson 2012): +VE
In vivo DILI ([1]; ref Gustafsson 2014): +VE
In vivo DILI ([1]; ref O'Brien 2006): +VE
In vivo DILI ([1]; ref Schadt 2015): -VE
In vivo DILI ([1]; ref Xu 2008): +VE
Cellular toxicity (3T3 cells) [8]: -VE
Combined Assay [8]: -VE
GSH adduct HML [8]: -VE
Hepatocyte cellular toxicity [8]: -VE
MitoTox 3T3 [8]: -VE
TDI CYP3A4 [8]: -VE
hBSEP inhibition [8]: -VE
Inhibition of rBsep cutoff<1& cmax u>.2 (rBsep; [11]): -VE
Inhibition of rBsep cutoff<3 (rBsep; [11]): +VE
Structural based (HCI) (HepG2 cells [4]): +VE

O=C(O)c1cc(=O)c2c(OCC(O)COc3cccc4oc(C(=O)O)cc(=O)c34)cccc2o1 [cromolyn]
Structural based (HCI) (human hepatocytes): -VE
Inhibition of rBsep cutoff<1& cmax u>.2 (rBsep; [11]): -VE
Inhibition of rBsep cutoff<3 (rBsep; [11]): -VE
Cluster 1-6 +VE Assay [2, 10]: -VE

Nc1ccc(S(=O)(=O)c2ccc(N)cc2)cc1 [dapsone]
Structural based (HCI) (human hepatocytes): -VE
in vitro data EC2<=1x Cmax [6]: +VE
in vitro data EC20<=2uM [6]: -VE
In vivo DILI ([1]; […]): +VE
In vivo DILI ([1]; ref Dawson 2012): +VE
In vivo DILI ([1]; ref Garside 2014): +VE
In vivo DILI ([1]; ref Gustafsson 2014): +VE
In vivo DILI ([1]; ref Khetani 2012): +VE
In vivo DILI ([1]; ref Porceddu 2012): +VE
In vivo DILI ([1]; ref Xu 2008): +VE
DILI +VE (5-8), DILI -VE (-4) [5]: +VE
DILI severity category [5]: vLess-DILI-Concern
Inhibition of rBsep cutoff<1& cmax u>.2 (rBsep; [11]): -VE
Inhibition of rBsep cutoff<3 (rBsep; [11]): -VE
Cluster 1-6 +VE Assay [2, 10]: +VE

Cc1nc(Nc2ncc(C(=O)Nc3c(C)cccc3Cl)s2)cc(N2CCN(CCO)CC2)n1 [dasatinib]
in vitro data EC2<=1x Cmax [6]: -VE
in vitro data EC20<=2uM [6]: +VE
In vivo DILI ([1]; ref Garside 2014): +VE
In vivo DILI ([1]; ref Porceddu 2012): +VE
DILI +VE (5-8), DILI -VE (-4) [5]: +VE
DILI severity category [5]: vLess-DILI-Concern
Cluster 1-6 +VE Assay [2, 10]: +VE

CCCCC[C@H](O)/C=C/[C@H]1[C@H](O)CC(=O)[C@@H]1C/C=C\CCCC(=O)O [dinoprostone]
In vivo DILI ([1]; ref Garside 2014): -VE
Cluster 1-6 +VE Assay [2, 10]: -VE

Cn1c(=O)c2c(ncn2CC(O)CO)n(C)c1=O (stereo not drawn) [dyphylline]
In vivo DILI ([1]; ref Garside 2014): -VE
DILI +VE (5-8), DILI -VE (-4) [5]: -VE
DILI severity category [5]: vNo-DILI-Concern
Cluster 1-6 +VE Assay [2, 10]: -VE

C[C@H](N[C@@H](CCc1ccccc1)C(=O)O)C(=O)N1CCC[C@H]1C(=O)O [enalaprilat]
In vivo DILI ([1]; in vivo): +VE
DILI +VE (5-8), DILI -VE (-4) [5]: -VE
DILI severity category [5]: Ambiguous DILI-concern
Cluster 1-6 +VE Assay [2]: -VE

O=c1[nH]cc(F)c(=O)[nH]1 [fluorouracil]
In vivo DILI ([1]; ref Garside 2014): +VE
DILI +VE (5-8), DILI -VE (-4) [5]: +VE
DILI severity category [5]: vLess-DILI-Concern
Cluster 1-6 +VE Assay [2, 10]: +VE

CCN(CC)CCNc1ccc(CO)c2sc3ccccc3c(=O)c12 [hycanthone]
Structural based (HCI) (human hepatocytes): +VE
In vivo DILI ([1]; […]): +VE
In vivo DILI ([1]; ref Garside 2014): +VE
In vivo DILI ([1]; ref Xu 2008): +VE
Cluster 1-6 +VE Assay [2, 10]: +VE

CC[C@@H](C(N)=O)N1CCCC1=O [levetiracetam]
In vivo DILI ([1]; ref Garside 2014): +VE
DILI +VE (5-8), DILI -VE (-4) [5]: +VE
DILI severity category [5]: vLess-DILI-Concern
Cluster 1-6 +VE Assay [2, 10]: +VE

CC(Oc1c(Cl)cccc1Cl)C1=NCCN1 (stereo not drawn) [lofexidine]
In vivo DILI [1, 12]: -VE
Cluster 1-6 +VE Assay, In vitro Assay ([2]; ref Garside 2014): -VE

CCCCc1nc(Cl)c(CO)n1Cc1ccc(-c2ccccc2-c2nn[nH]n2)cc1 [losartan]
Partition Hybrid HRM Score [9]: +VE
Ro2 Hybrid HRM Score [9]: +VE
Cellular toxicity (3T3 cells) [8]: -VE
Combined Assay [8]: +VE
GSH adduct HML [8]: +VE
Hepatocyte cellular toxicity [8]: +VE
MitoTox 3T3 [8]: -VE
TDI CYP3A4 [8]: -VE
hBSEP inhibition [8]: +VE
Cluster 1-6 +VE Assay [2, 10]: +VE

CC(=O)[C@H]1CC[C@H]2[C@@H]3C[C@H](C)C4=CC(=O)CC[C@]4(C)[C@H]3[C@@H](O)C[C@]12C [medrysone]
In vivo DILI [1, 12]: -VE
Cluster 1-6 +VE Assay, In vitro Assay ([2]; ref Garside 2014): +VE

O=C1c2c(O)ccc(O)c2C(=O)c2c(NCCNCCO)ccc(NCCNCCO)c21 [mitoxantrone]
Structural based (HCI) (human hepatocytes): +VE
in vitro data EC2<=1x Cmax [6]: -VE
Cluster 1-6 +VE Assay [2, 10]: +VE

Cc1nnc(NS(=O)(=O)c2ccc(N)cc2)s1 [sulfamethizole]
Cluster 1-6 +VE Assay [2, 10]: -VE

CC(C)(C)NCC(O)c1cc(O)cc(O)c1 (stereo not drawn) [terbutaline]
In vivo DILI ([1]; ref Garside 2014): +VE
DILI +VE (5-8), DILI -VE (-4) [5]: +VE
DILI severity category [5]: vLess-DILI-Concern
Cluster 1-6 +VE Assay [2, 10]: +VE

CCCCNC(=O)NS(=O)(=O)c1ccc(C)cc1 [tolbutamide, reference compound]
Inhibition of rBsep cutoff<1& cmax u>.2 (rBsep; [11]): -VE
Inhibition of rBsep cutoff<3 (rBsep; [11]): -VE
Cluster 1-6 +VE Assay [2, 10]: +VE
Structural based (HCI) (HepG2 cells [4]): +VE
